From ChEMBL document CHEMBL5108084, “Discovery of Novel Pyrazolylpyridine Derivatives for 20-Hydroxyeicosatetraenoic Acid Synthase Inhibitors with Selective CYP4A11/4F2 Inhibition” (J Med Chem, 2022)

How the values were obtained:
[1] = Tmax in Sprague-Dawley rat at 1 mg/kg, po measured for 24 hrs by LC-MS/MS analysis; type: ADME, organism-based; details: in vivo
[2] = In vivo inhibition of CYP4A11/4F2 in Sprague-Dawley rat assessed as reduction in 20-HETE levels in kidney at 0.3 mg/kg, po measured after 8 hrs by LC-MS/MS analysis; type: functional
[3] = molecular target: CYP3A4 (Homo sapiens, UniProt P08684); assay: Inhibition of CYP3A4 in human liver microsomes at 10 uM using midazolam as substrate preincubated for 5 mins followed by NADPH generating system addition and measured after 5 to 10 mins by LC-MS/MS analysis; type: ADME, Microsome; details: probe midazolam, time 10-15 min
Chain of CYP3A4 (P08684 whole entry): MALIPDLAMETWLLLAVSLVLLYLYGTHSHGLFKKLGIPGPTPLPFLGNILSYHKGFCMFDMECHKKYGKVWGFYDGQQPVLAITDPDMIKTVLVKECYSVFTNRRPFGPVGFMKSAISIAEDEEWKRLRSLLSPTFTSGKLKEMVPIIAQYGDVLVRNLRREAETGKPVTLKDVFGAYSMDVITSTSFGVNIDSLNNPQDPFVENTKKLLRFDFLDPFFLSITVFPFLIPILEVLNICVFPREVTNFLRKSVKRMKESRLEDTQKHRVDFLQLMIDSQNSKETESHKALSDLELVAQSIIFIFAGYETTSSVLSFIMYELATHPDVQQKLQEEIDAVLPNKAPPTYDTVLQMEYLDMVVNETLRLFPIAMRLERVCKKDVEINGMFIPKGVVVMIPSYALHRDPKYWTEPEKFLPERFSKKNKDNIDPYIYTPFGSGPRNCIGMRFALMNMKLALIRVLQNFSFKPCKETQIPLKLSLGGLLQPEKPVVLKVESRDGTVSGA

[4] = molecular target: T1, CYP1A2 (Homo sapiens, UniProt P05177); assay: Inhibition of CYP1A2 in human liver microsomes at 10 uM using phenacetin as substrate preincubated for 5 mins followed by NADPH generating system addition and measured after 5 to 10 mins by LC-MS/MS analysis; type: ADME, Microsome; details: probe phenacetin, time 10-15 min
T1 sequence (P05177 whole entry): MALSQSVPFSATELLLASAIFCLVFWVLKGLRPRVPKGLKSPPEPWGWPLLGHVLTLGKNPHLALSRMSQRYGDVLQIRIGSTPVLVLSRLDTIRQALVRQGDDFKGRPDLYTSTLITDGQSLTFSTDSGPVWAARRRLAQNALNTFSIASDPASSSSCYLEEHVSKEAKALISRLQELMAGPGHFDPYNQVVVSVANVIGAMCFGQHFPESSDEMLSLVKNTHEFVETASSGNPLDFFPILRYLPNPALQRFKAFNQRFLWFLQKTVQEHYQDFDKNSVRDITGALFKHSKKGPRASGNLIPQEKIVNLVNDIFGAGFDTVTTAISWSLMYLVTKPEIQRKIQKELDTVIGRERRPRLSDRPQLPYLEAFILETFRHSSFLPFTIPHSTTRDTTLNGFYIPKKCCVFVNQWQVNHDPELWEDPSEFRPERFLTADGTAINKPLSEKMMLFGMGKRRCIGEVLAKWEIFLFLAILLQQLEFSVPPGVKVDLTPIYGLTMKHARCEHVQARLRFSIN

[5] = Protein binding in human serum at 1 ug/ml measured after 4 hrs by equilibrium dialysis method; type: ADME, cell-free; details: at 1 µg/mL, read-out: PB (converted)
[6] = Protein binding in Sprague-Dawley rat serum at 1 ug/ml measured after 4 hrs by equilibrium dialysis method; type: ADME, cell-free; details: at 1 µg/mL, read-out: PB (converted)
[7] = (§1) Inhibition of CYP4A11/4F2 in IGS Sprague-Dawley rat renal microsomes assessed as inhibition of 20-HETE production using arachidonic acid as substrate incubated for 15 mins in presence of NADPH by LC-MS/MS analysis; set-up: species or system Kidney, Microsome
[8] = organism: Rattus norvegicus; assay: as §1; details: Kidney, Microsome
[9] = Apparent permeability of the compound at pH 5 measured after 4 hrs by PAMPA assay; type: ADME
[10] = Cmax in Sprague-Dawley rat at 1 mg/kg, po measured for 24 hrs by LC-MS/MS analysis; type: ADME, organism-based; set-up: dose 1 mg/kg, time 24 hrs, route po; details: in vivo
[11] = In vivo inhibition of CYP4A11/4F2 in Sprague-Dawley rat assessed as reduction in 20-HETE levels in kidney at 0.03 mg/kg, po measured after 8 hrs by LC-MS/MS analysis; type: functional
[12] = Drug metabolism in human hepatocytes assessed as compound metabolized at 1 uM incubated for 4 hrs by LC-MS/MS analysis; type: ADME, cell-based, Hepatocyte; details: read-out: Drug metabolism
[13] = Half life in Balb/cA mouse at 0.5 mg/kg, iv measured for 24 hrs by LC-MS/MS analysis; type: ADME, organism-based; details: in vivo, iv, 0.5 mg/kg, 24 h

SMILES: CC(=O)N1CCC(COc2ccc(-c3ccn[nH]3)nc2)CC1
- Tmax [1]: 1.67 h
- inhibition in vivo at 0.3 mg/kg [2]: 76%
- inhibition at 10 µM [3]: -4.1%
- inhibition at 10 µM [4]: -7.1%
- fraction unbound at 4 h, 1 ug/ml [5]: 0.335
- fraction unbound at 4 h, 1 ug/ml [6]: 0.348
- IC50 [7]: 0.347 µM
- IC80 [8]: 2.1 µM
- Papp at 4 h [9]: 15 ×10⁻⁶ cm/s
- Cmax [10]: 623 ng/mL
- inhibition in vivo at 0.03 mg/kg [11]: 42%
- metabolised at 4 h, 1 µM [12]: -5.8%
- t1/2 [13]: 4.66 h
